In the experiment the target is T1, Human Neuropeptide Y2 Receptor (Homo sapiens, UniProt P49146).
T1 construct: purchased CHEMICON HTS066M
T1 sequence (P49146 1-381): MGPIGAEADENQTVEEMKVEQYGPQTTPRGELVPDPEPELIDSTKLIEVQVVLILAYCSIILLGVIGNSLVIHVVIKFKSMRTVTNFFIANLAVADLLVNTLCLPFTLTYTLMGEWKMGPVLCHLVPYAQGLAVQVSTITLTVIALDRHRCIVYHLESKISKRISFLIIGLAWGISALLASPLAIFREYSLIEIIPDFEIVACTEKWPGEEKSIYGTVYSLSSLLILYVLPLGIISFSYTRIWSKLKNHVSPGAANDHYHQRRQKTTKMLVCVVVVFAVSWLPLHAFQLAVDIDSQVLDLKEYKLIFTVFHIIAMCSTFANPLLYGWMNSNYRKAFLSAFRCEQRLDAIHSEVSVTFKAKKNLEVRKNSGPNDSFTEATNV
In words: Radioligand binding competition assay (RLB). Conditions: Table 3; human 125I-PYY (1-36) 0.02 nM, Y2 receptor membranes; read-out: Ki. An outline of the steps: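 Membranes from cells expressing human Y2 receptor (0.5 μg protein/well) were incubated with radioligand and serially diluted peptides in 50 mM HEPES, 5 mM MgCl2, 1 mM CaCl2, 0.2% ovalbumin, pH 7.4, for 2 h at room temperature with shaking. Bound radioactivity was collected by filtration and counted; IC50 from sigmoidal nonlinear regression.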

pKi: −log10 of the molar value. *1 amine or outer side, *2 acyl side, *3 side chain or, on linkers, in order; H or OH if unused. Where a SMILES comes first, the peptide text is derived from it. Side-chain parts run from the residue outwards. The star is where a group is joined. C18 diacid = O=C(O)CCCCCCCCCCCCCCCCC(=O)*; γGlu = O=C(O)[C@H](CCC(=O)[*:2])N[*:1]; Isovaleryl = CC(C)CC(=O)*; AEEA = NCCOCCOCC(=O)O

Broadly, the pKi is the Ki on a negative log10 scale, so that one unit is a factor of ten.

Consider `CC(C)CC(=O)N[C@@H](C)C(=O)N1CCC[C@H]1C(=O)N[C@@H](CCC(=O)O)C(=O)N[C@@H](CCCCNC(=O)COCCOCCNC(=O)COCCOCCNC(=O)CC[C@H](NC(=O)CCCCCCCCCCCCCCCCC(=O)O)C(=O)O)C(=O)N1CCC[C@H]1C(=O)N1CCC[C@H]1C(=O)N[C@@H](CCC(=O)O)C(=O)N[C@@H](CC(=O)O)C(=O)N[C@@H](C)C(=O)N[C@@H](CCC(=O)O)C(=O)N1CCC[C@H]1C(=O)N[C@@H](CCC(=O)O)C(=O)N[C@@H](CCC(=O)O)C(=O)N[C@@H](CC(C)C)C(=O)N[C@@H](CCC(N)=O)C(=O)N[C@@H](CCCNC(=N)N)C(=O)N[C@@H](Cc1ccc(O)cc1)C(=O)N[C@@H](Cc1ccc(O)cc1)C(=O)N[C@H](C(=O)N[C@@H](CO)C(=O)N[C@@H](CC(C)C)C(=O)N[C@@H](CCCNC(=N)N)C(=O)N[C@@H](Cc1c[nH]cn1)C(=O)N[C@@H](Cc1ccc(O)cc1)C(=O)N[C@@H](Cc1ccc(O)cc1)C(=O)N[C@@H](CC(N)=O)C(=O)N[C@@H](Cc1c[nH]c2ccccc12)C(=O)N[C@@H](CC(C)C)C(=O)N[C@H](C(=O)N[C@@H](CCCNC(=N)N)C(=O)N[C@@H](CCC(N)=O)C(=O)N[C@@H](CCCNC(=N)N)C(=O)N[C@@H](Cc1ccc(O)cc1)C(N)=O)[C@@H](C)O)C(C)C` [Compound 27, N{alpha-4}-(3-methylbutanoyl)-N{epsilon-7}-[2-(2-{2-[2-(2-{2-[(4S)-4-carboxy-4-(17-carboxyheptadecanamido)butanamido]ethoxy}ethoxy)acetamido]ethoxy}ethoxy)acetamido]-[4A,7K,9P,13E,18Q,22V,28Y,30W,31L]hPYY (4-36)], for which the negative-log Ki (pKi) is 9.02.

As to `CC(C)CC(=O)N[C@@H](C)C(=O)N1CCC[C@H]1C(=O)N[C@@H](CCC(=O)O)C(=O)N[C@@H](CCCCNC(=O)COCCOCCNC(=O)COCCOCCNC(=O)CC[C@H](NC(=O)CCCCCCCCCCCCCCCCC(=O)O)C(=O)O)C(=O)N1CCC[C@H]1C(=O)N[C@@H](CCC(=O)O)C(=O)N[C@@H](CCC(=O)O)C(=O)N[C@@H](CC(=O)O)C(=O)N[C@H](C(=O)N[C@@H](CO)C(=O)N1CCC[C@H]1C(=O)N[C@@H](CCC(=O)O)C(=O)N[C@@H](CCC(=O)O)C(=O)N[C@@H](CC(C)C)C(=O)N[C@@H](CCC(N)=O)C(=O)N[C@@H](CCCNC(=N)N)C(=O)N[C@@H](Cc1ccc(O)cc1)C(=O)N[C@@H](Cc1ccc(O)cc1)C(=O)N[C@H](C(=O)N[C@@H](CCC(=O)O)C(=O)N[C@@H](CC(C)C)C(=O)N[C@@H](CCCNC(=N)N)C(=O)N[C@@H](Cc1c[nH]cn1)C(=O)N[C@@H](Cc1ccc(O)cc1)C(=O)N[C@@H](Cc1ccc(O)cc1)C(=O)N[C@@H](CC(N)=O)C(=O)N[C@@H](Cc1c[nH]c2ccccc12)C(=O)N[C@@H](CC(C)C)C(=O)N[C@H](C(=O)N[C@@H](CCCNC(=N)N)C(=O)N[C@@H](CCC(N)=O)C(=O)N[C@@H](CCCNC(=N)N)C(=O)N[C@@H](Cc1ccc(O)cc1)C(N)=O)[C@@H](C)O)C(C)C)[C@@H](C)O` [Compound 28, N{alpha-4}-(3-methylbutanoyl)-N{epsilon-7}-[2-(2-{2-[2-(2-{2-[(4S)-4-carboxy-4-(17-carboxyheptadecanamido)butanamido]ethoxy}ethoxy)acetamido]ethoxy}ethoxy)acetamido]-[4A,7K,9E,12T,18Q,22V,23E,28Y,30W,31L]hPYY (4-36)], the pKi was 8.22.

On to `CC(C)CC(=O)N[C@@H](C)C(=O)N1CCC[C@H]1C(=O)N[C@@H](CCC(=O)O)C(=O)N[C@@H](CCCCNC(=O)COCCOCCNC(=O)COCCOCCNC(=O)CC[C@H](NC(=O)CCCCCCCCCCCCCCCCC(=O)O)C(=O)O)C(=O)N1CCC[C@H]1C(=O)N[C@@H](CCC(=O)O)C(=O)N[C@@H](CCC(=O)O)C(=O)N[C@@H](CC(=O)O)C(=O)N[C@H](C(=O)N[C@@H](CO)C(=O)N1CCC[C@H]1C(=O)N[C@@H](CCC(=O)O)C(=O)N[C@@H](CCC(=O)O)C(=O)N[C@@H](CC(C)C)C(=O)N[C@@H](CCC(N)=O)C(=O)N[C@@H](CCCNC(=N)N)C(=O)N[C@@H](Cc1ccc(O)cc1)C(=O)N[C@@H](CCC(=O)O)C(=O)N[C@H](C(=O)N[C@@H](CO)C(=O)N[C@@H](CC(C)C)C(=O)N[C@@H](CCCNC(=N)N)C(=O)N[C@@H](Cc1c[nH]cn1)C(=O)N[C@@H](Cc1ccc(O)cc1)C(=O)N[C@@H](Cc1ccc(O)cc1)C(=O)N[C@@H](CC(N)=O)C(=O)N[C@@H](Cc1c[nH]c2ccccc12)C(=O)N[C@@H](CC(C)C)C(=O)N[C@H](C(=O)N[C@@H](CCCNC(=N)N)C(=O)N[C@@H](CCC(N)=O)C(=O)N[C@@H](CCCNC(=N)N)C(=O)N[C@@H](Cc1ccc(O)cc1)C(N)=O)[C@@H](C)O)C(C)C)[C@@H](C)O` [Compound 32, N{alpha-4}-(3-methylbutanoyl)-N{epsilon-7}-[2-(2-{2-[2-(2-{2-[(4S)-4-carboxy-4-(17-carboxyheptadecanamido)butanamido]ethoxy}ethoxy)acetamido]ethoxy}ethoxy)acetamido]-[4A,7K,9E,12T,18Q,21E,22V,28Y,30W,31L]hPYY (4-36)] (Isovaleryl-APEK([AEEA-AEEA-γGlu-C18 diacid])PEEDTSPEELQRYEVSLRHYYNWLTRQRY-NH2), for which the negative logarithm of the Ki (pKi) was 8.32.

On to `CC(C)CC(=O)N[C@@H](C)C(=O)N1CCC[C@H]1C(=O)N[C@@H](CCC(=O)O)C(=O)N[C@@H](CCCCNC(=O)COCCOCCNC(=O)COCCOCCNC(=O)CC[C@H](NC(=O)CCCCCCCCCCCCCCCCC(=O)O)C(=O)O)C(=O)N1CCC[C@H]1C(=O)N[C@@H](CCC(=O)O)C(=O)N[C@@H](CCC(=O)O)C(=O)N[C@@H](CC(=O)O)C(=O)N[C@@H](C)C(=O)N[C@@H](CO)C(=O)N1CCC[C@H]1C(=O)N[C@@H](CCC(=O)O)C(=O)N[C@@H](CCC(=O)O)C(=O)N[C@@H](CC(C)C)C(=O)N[C@@H](CCC(N)=O)C(=O)N[C@@H](CCCNC(=N)N)C(=O)N[C@@H](Cc1ccc(O)cc1)C(=O)N[C@@H](Cc1ccc(O)cc1)C(=O)N[C@H](C(=O)N[C@@H](CO)C(=O)N[C@H](C(=O)N[C@@H](CCCNC(=N)N)C(=O)N[C@@H](Cc1c[nH]cn1)C(=O)N[C@@H](Cc1ccc(O)cc1)C(=O)N[C@@H](Cc1ccc(O)cc1)C(=O)N[C@@H](CC(N)=O)C(=O)N[C@@H](Cc1c[nH]c2ccccc12)C(=O)N[C@@H](CC(C)C)C(=O)N[C@H](C(=O)N[C@@H](CCCNC(=N)N)C(=O)N[C@@H](CCC(N)=O)C(=O)N[C@@H](CCCNC(=N)N)C(=O)N[C@@H](Cc1ccc(O)cc1)C(N)=O)[C@@H](C)O)[C@@H](C)O)C(C)C` [Compound 34, N{alpha-4}-(3-methylbutanoyl)-N{epsilon-7}-[2-(2-{2-[2-(2-{2-[(4S)-4-carboxy-4-(17-carboxyheptadecanamido)butanamido]ethoxy}ethoxy)acetamido]ethoxy}ethoxy)acetamido]-[4A,7K,9E,18Q,22V,24T,28Y,30W,31L]hPYY (4-36)], for which the negative-log Ki (pKi) is 8.19.

With `CC(C)CC(=O)N[C@@H](C)C(=O)N1CCC[C@H]1C(=O)N[C@@H](CCC(=O)O)C(=O)N[C@@H](CCCCNC(=O)COCCOCCNC(=O)COCCOCCNC(=O)CC[C@H](NC(=O)CCCCCCCCCCCCCCCCC(=O)O)C(=O)O)C(=O)N1CCC[C@H]1C(=O)N[C@@H](CCC(=O)O)C(=O)N[C@@H](CCC(=O)O)C(=O)N[C@@H](CC(=O)O)C(=O)N[C@@H](C)C(=O)N[C@@H](C)C(=O)N1CCC[C@H]1C(=O)N[C@@H](CCC(=O)O)C(=O)N[C@@H](CCC(=O)O)C(=O)N[C@H](C(=O)N[C@@H](CCC(N)=O)C(=O)N[C@@H](CCCNC(=N)N)C(=O)N[C@@H](Cc1ccc(O)cc1)C(=O)N[C@@H](Cc1ccc(O)cc1)C(=O)N[C@H](C(=O)N[C@@H](CO)C(=O)N[C@@H](CC(C)C)C(=O)N[C@@H](CCCNC(=N)N)C(=O)N[C@@H](Cc1c[nH]cn1)C(=O)N[C@@H](Cc1ccc(O)cc1)C(=O)N[C@@H](Cc1ccc(O)cc1)C(=O)N[C@@H](CC(N)=O)C(=O)N[C@@H](Cc1c[nH]c2ccccc12)C(=O)N[C@@H](CC(C)C)C(=O)N[C@H](C(=O)N[C@@H](CCCNC(=N)N)C(=O)N[C@@H](CCC(N)=O)C(=O)N[C@@H](CCCNC(=N)N)C(=O)N[C@@H](Cc1ccc(O)cc1)C(N)=O)[C@@H](C)O)C(C)C)[C@@H](C)O` [Compound 35, N{alpha-4}-(3-methylbutanoyl)-N{epsilon-7}-[2-(2-{2-[2-(2-{2-[(4S)-4-carboxy-4-(17-carboxyheptadecanamido)butanamido]ethoxy}ethoxy)acetamido]ethoxy}ethoxy)acetamido]-[4A,7K,9E,13A,17T,18Q,22V,28Y,30W,31L]hPYY (4-36)], the pKi was 8.92.

(Values after US12559529B2, “NPY2 receptor agonists” (Boehringer Ingelheim International GmbH, priority 2019, dated 2026).)
